System: MV-4-11 cells
Assay: Gene expression microarray analysis (Affymetrix PrimeView) and GSEA
Type: cell-based, human
Design: RFU PODN (11730768_x_at) / Fold change /veh PODN (11730768_x_at) / RFU LINC00158 (11744669_a_at) / Fold change /veh LINC00158 (11744669_a_at) / RFU DUSP10 (11751237_a_at) / Fold change /veh DUSP10 (11751237_a_at) / RFU ID3 (11757404_x_at) / Fold change /veh ID3 (11757404_x_at) / RFU PLEKHG5 (11737974_s_at) / Fold change /veh PLEKHG5 (11737974_s_at) / RFU LRRC4B (11730491_at) / Fold change /veh LRRC4B (11730491_at) / RFU GIMAP4 (11747438_a_at) / Fold change /veh GIMAP4 (11747438_a_at) / RFU KRT8 (11758183_x_at) / Fold change /veh KRT8 (11758183_x_at) / RFU CNN1 (11734310_a_at) / Fold change /veh CNN1 (11734310_a_at) / RFU VPS37D (11726825_at) / Fold change /veh VPS37D (11726825_at) / RFU C10orf10 (11716522_x_at) / Fold change /veh C10orf10 (11716522_x_at) / RFU KIR2DL2 /// KIR2DL4 /// KIR2DL5A /// KIR2DL5B /// KIR2DS1 /// KIR2DS2 /// KIR2DS3 /// KIR2DS4 /// KIR3DL3 /// KIR3DL3 /// KIR3DS1 (11738374_at) / Fold change /veh KIR2DL2 /// KIR2DL4 /// KIR2DL5A /// KIR2DL5B /// KIR2DS1 /// KIR2DS2 /// KIR2DS3 /// KIR2DS4 /// KIR3DL3 /// KIR3DL3 /// KIR3DS1 (11738374_at) / RFU C1QL1 (11718748_at) / Fold change /veh C1QL1 (11718748_at) / RFU TMPRSS4 (11747572_a_at) / Fold change /veh TMPRSS4 (11747572_a_at) / RFU HAMP (11756126_x_at) / Fold change /veh HAMP (11756126_x_at) / RFU RNFT2 (11725882_a_at) / Fold change /veh RNFT2 (11725882_a_at) / RFU NR4A2 (11747474_a_at) / Fold change /veh NR4A2 (11747474_a_at) / RFU ABCC12 (11746883_a_at) / Fold change /veh ABCC12 (11746883_a_at) / RFU TMEM136 (11760407_x_at) / Fold change /veh TMEM136 (11760407_x_at) / RFU CLDN22 /// WWC2 (11732394_at) / Fold change /veh CLDN22 /// WWC2 (11732394_at) / RFU HLA-DPB1 (11760878_x_at) / Fold change /veh HLA-DPB1 (11760878_x_at) / RFU SPINT1 (11716480_a_at) / Fold change /veh SPINT1 (11716480_a_at) / RFU GAP43 (11754022_s_at) / Fold change /veh GAP43 (11754022_s_at) / RFU A4GNT (11735810_at) / Fold change /veh A4GNT (11735810_at) / RFU PRB3 (11715151_x_at) / Fold change /veh PRB3 (11715151_x_at) / RFU TUBB4B (11761932_at) / Fold change /veh TUBB4B (11761932_at) / RFU CAPN14 (11732068_a_at) / Fold change /veh CAPN14 (11732068_a_at) / RFU TMCC2 (11721928_a_at) / Fold change /veh TMCC2 (11721928_a_at) / RFU IRGQ (11745062_a_at) / Fold change /veh IRGQ (11745062_a_at) / RFU FAM174B (11720279_a_at) / Fold change /veh FAM174B (11720279_a_at) / RFU TMPRSS4 (11748680_a_at) / Fold change /veh TMPRSS4 (11748680_a_at) / RFU FAM212B (11763350_a_at) / Fold change /veh FAM212B (11763350_a_at) / RFU PLEKHG5 (11743358_a_at) / Fold change /veh PLEKHG5 (11743358_a_at) / RFU ZSCAN30 (11745921_a_at) / Fold change /veh ZSCAN30 (11745921_a_at) / RFU CMKLR1 (11741424_a_at) / Fold change /veh CMKLR1 (11741424_a_at) / RFU LOC101060620 /// MAPK8IP1 (11723275_at) / Fold change /veh LOC101060620 /// MAPK8IP1 (11723275_at) / RFU SPTSSB (11747773_x_at) / Fold change /veh SPTSSB (11747773_x_at) / RFU PRSS12 (11739890_at) / Fold change /veh PRSS12 (11739890_at) / RFU BIN1 (11741810_x_at) / Fold change /veh BIN1 (11741810_x_at) / RFU WNT11 (11732464_a_at) / Fold change /veh WNT11 (11732464_a_at) / RFU C10orf10 (11716521_a_at) / Fold change /veh C10orf10 (11716521_a_at) / RFU C5orf56 (11738089_at) / Fold change /veh C5orf56 (11738089_at) / RFU CYB561 (11721691_x_at) / Fold change /veh CYB561 (11721691_x_at) / RFU ANKRD19P (11752326_a_at) / Fold change /veh ANKRD19P (11752326_a_at) / RFU OR2T12 /// OR2T33 /// OR2T8 (11738714_s_at) / Fold change /veh OR2T12 /// OR2T33 /// OR2T8 (11738714_s_at) / RFU VCAN (11748164_a_at) / Fold change /veh VCAN (11748164_a_at) / RFU JSRP1 (11732532_at) / Fold change /veh JSRP1 (11732532_at) / RFU KRTAP10-11 (11738290_x_at) / Fold change /veh KRTAP10-11 (11738290_x_at) / RFU MYO3A (11730013_a_at) / Fold change /veh MYO3A (11730013_a_at) / RFU EBF3 (11725865_a_at) / Fold change /veh EBF3 (11725865_a_at) / RFU CAMK2N1 (11719241_x_at) / Fold change /veh CAMK2N1 (11719241_x_at) / RFU C5orf56 (11738088_a_at) / Fold change /veh C5orf56 (11738088_a_at) / RFU OLFML3 (11715873_a_at) / Fold change /veh OLFML3 (11715873_a_at) / RFU LOC100653217 /// NTM (11731650_a_at) / Fold change /veh LOC100653217 /// NTM (11731650_a_at) / RFU MAPK11 (11762145_a_at) / Fold change /veh MAPK11 (11762145_a_at) / RFU FIZ1 (11724087_x_at) / Fold change /veh FIZ1 (11724087_x_at) / RFU OASL (11726364_x_at) / Fold change /veh OASL (11726364_x_at) / RFU SOX15 (11748057_x_at) / Fold change /veh SOX15 (11748057_x_at) / RFU CD79A (11719716_a_at) / Fold change /veh CD79A (11719716_a_at) / RFU HIST1H1D (11736915_at) / Fold change /veh HIST1H1D (11736915_at) / RFU CASKIN2 (11723855_a_at) / Fold change /veh CASKIN2 (11723855_a_at) / RFU LOC730098 (11760151_x_at) / Fold change /veh LOC730098 (11760151_x_at) / RFU OR4N2 (11742367_at) / Fold change /veh OR4N2 (11742367_at) / RFU PRRT2 (11749266_a_at) / Fold change /veh PRRT2 (11749266_a_at) / RFU SNX32 (11753110_a_at) / Fold change /veh SNX32 (11753110_a_at) / RFU CDHR5 (11726645_a_at) / Fold change /veh CDHR5 (11726645_a_at) / RFU RCAN1 (11760418_a_at) / Fold change /veh RCAN1 (11760418_a_at) / RFU FAM167A (11723789_a_at) / Fold change /veh FAM167A (11723789_a_at) / RFU FAM26E (11764081_at) / Fold change /veh FAM26E (11764081_at) / RFU ISYNA1 (11749810_s_at) / Fold change /veh ISYNA1 (11749810_s_at) / RFU ACY1 (11761880_at) / Fold change /veh ACY1 (11761880_at) / RFU 11764098_at / Fold change /veh 11764098_at / RFU SAMD14 (11745864_x_at) / Fold change /veh SAMD14 (11745864_x_at) / RFU NPB (11741838_a_at) / Fold change /veh NPB (11741838_a_at) / RFU TMPRSS6 (11731388_a_at) / Fold change /veh TMPRSS6 (11731388_a_at) / RFU KRTAP10-2 (11738614_at) / Fold change /veh KRTAP10-2 (11738614_at) / RFU ARHGAP8 /// PRR5-ARHGAP8 (11727945_x_at) / Fold change /veh ARHGAP8 /// PRR5-ARHGAP8 (11727945_x_at) / RFU KRTAP5-7 /// NADSYN1 (11734609_at) / Fold change /veh KRTAP5-7 /// NADSYN1 (11734609_at) / RFU RASL12 (11751679_a_at) / Fold change /veh RASL12 (11751679_a_at) / RFU CDKN2B (11736163_a_at) / Fold change /veh CDKN2B (11736163_a_at) / RFU PRF1 (11729649_at) / Fold change /veh PRF1 (11729649_at) / RFU, ZNF638 /// ZNF638-IT1 / Fold change vs veh, ZNF638 /// ZNF638-IT1 / RFU, PANK3 / Fold change vs veh, PANK3 / RFU, SH3YL1 / Fold change vs veh, SH3YL1 / RFU, ZEB2 / Fold change vs veh, ZEB2 / RFU, NRIP1 / Fold change vs veh, NRIP1 / RFU, PTTG1IP / Fold change vs veh, PTTG1IP / RFU, CAPN2 / Fold change vs veh, CAPN2 / RFU, MED14 / Fold change vs veh, MED14 / RFU, SNORA58 / Fold change vs veh, SNORA58 / RFU, C1orf63 / Fold change vs veh, C1orf63 / RFU, LRRFIP1 / Fold change vs veh, LRRFIP1 / RFU, NDUFAF7 / Fold change vs veh, NDUFAF7 / RFU, SLC12A2 / Fold change vs veh, SLC12A2 / RFU, IBTK / Fold change vs veh, IBTK / RFU, ESF1 / Fold change vs veh, ESF1 / Fold change vs veh, TMEM50B / RFU, TAOK1 / Fold change vs veh, TAOK1 / RFU, ACBD3 / Fold change vs veh, ACBD3 / RFU, TMA16 / Fold change vs veh, TMA16 / RFU, RWDD3 / Fold change vs veh, RWDD3 / RFU, BCAT1 / Fold change vs veh, BCAT1 / RFU, EDEM3 / Fold change vs veh, EDEM3 / RFU, TMEM33 / Fold change vs veh, TMEM33 / RFU, WDR75 / Fold change vs veh, WDR75 / RFU, AHCTF1 / Fold change vs veh, AHCTF1 / RFU, TFRC / Fold change vs veh, TFRC / RFU, ZDHHC17 / Fold change vs veh, ZDHHC17 / RFU, NOM1 / Fold change vs veh, NOM1 / RFU, ARL8B / Fold change vs veh, ARL8B / RFU, ZBTB11 / Fold change vs veh, ZBTB11 / RFU, TAMM41 / Fold change vs veh, TAMM41 / RFU, KIAA1704 /// LOC100996395 / Fold change vs veh, KIAA1704 /// LOC100996395 / RFU, ING1 / Fold change vs veh, ING1 / RFU, TRMT61B / Fold change vs veh, TRMT61B / RFU, FUBP3 / Fold change vs veh, FUBP3 / RFU, TP53 / Fold change vs veh, TP53 / RFU, TNKS2 / Fold change vs veh, TNKS2 / RFU, ZFP14 / Fold change vs veh, ZFP14 / RFU, ACTR2 / Fold change vs veh, ACTR2 / RFU, PPP3R1 / Fold change vs veh, PPP3R1 / RFU, PIK3R1 / Fold change vs veh, PIK3R1 / RFU, HNRNPA1 / Fold change vs veh, HNRNPA1 / RFU, RNF170 / Fold change vs veh, RNF170 / RFU, ZNF28 / Fold change vs veh, ZNF28 / RFU, RNGTT / Fold change vs veh, RNGTT / RFU, OGT / Fold change vs veh, OGT / RFU, BRD1 / Fold change vs veh, BRD1 / RFU, MARS / Fold change vs veh, MARS / RFU, ZNF655 / Fold change vs veh, ZNF655 / RFU, FAHD1 / Fold change vs veh, FAHD1 / RFU, BDP1 / Fold change vs veh, BDP1 / RFU, LRRCC1 / Fold change vs veh, LRRCC1 / RFU, ARID1A / Fold change vs veh, ARID1A / RFU, ZNF146 / Fold change vs veh, ZNF146 / RFU, ZNF330 / Fold change vs veh, ZNF330 / RFU, GPN3 / Fold change vs veh, GPN3 / RFU, C9orf123 / Fold change vs veh, C9orf123 / RFU, N4BP2L2 / Fold change vs veh, N4BP2L2 / RFU, ARFIP1 / Fold change vs veh, ARFIP1 / RFU, FAM179B / Fold change vs veh, FAM179B / RFU, BCL10 / Fold change vs veh, BCL10 / RFU, UHRF1BP1L / Fold change vs veh, UHRF1BP1L / RFU, BET1 / Fold change vs veh, BET1 / RFU, CNOT2 / Fold change vs veh, CNOT2 / RFU, ZNF268 / Fold change vs veh, ZNF268 / Fold change vs veh, ZNF507 / RFU, DGCR2 / Fold change vs veh, DGCR2 / RFU, WDSUB1 / Fold change vs veh, WDSUB1 / Fold change vs veh, HSP90B1 /// MIR3652 / RFU, ADSS / Fold change vs veh, ADSS / RFU, GK / Fold change vs veh, GK / RFU, ZNF148 / Fold change vs veh, ZNF148 / RFU, TAF9 / Fold change vs veh, TAF9 / RFU, SLC1A5 / Fold change vs veh, SLC1A5 / RFU, SLMO2 / Fold change vs veh, SLMO2 / RFU, ABCC4 / Fold change vs veh, ABCC4 / RFU, LOC101060439 /// RAP1B / Fold change vs veh, LOC101060439 /// RAP1B / RFU, RFX7 / Fold change vs veh, RFX7 / RFU, GTPBP10 / Fold change vs veh, GTPBP10 / RFU, CNEP1R1 / Fold change vs veh, CNEP1R1 / RFU, BIVM-ERCC5 /// ERCC5 / Fold change vs veh, BIVM-ERCC5 /// ERCC5 / RFU, ILF3 / Fold change vs veh, ILF3 / RFU 11762660_at / Fold change /veh 11762660_at / RFU VCAN (11757783_s_at) / Fold change /veh VCAN (11757783_s_at) / RFU DDX43 (11728927_at) / Fold change /veh DDX43 (11728927_at) / RFU KRT8 (11758188_x_at) / Fold change /veh KRT8 (11758188_x_at) / RFU NKD1 (11759106_at) / Fold change /veh NKD1 (11759106_at) / RFU SRD5A1 (11742802_a_at) / Fold change /veh SRD5A1 (11742802_a_at) / RFU TPSAB1 /// TPSB2 (11721975_s_at) / Fold change /veh TPSAB1 /// TPSB2 (11721975_s_at) / RFU GSTM3 (11746129_a_at) / Fold change /veh GSTM3 (11746129_a_at) / RFU IL23R (11737362_x_at) / Fold change /veh IL23R (11737362_x_at) / RFU TMEM51 (11727254_a_at) / Fold change /veh TMEM51 (11727254_a_at) / RFU PIWIL2 (11732686_x_at) / Fold change /veh PIWIL2 (11732686_x_at) / RFU ORM1 (11744905_x_at) / Fold change /veh ORM1 (11744905_x_at) / RFU CCDC152 (11743942_at) / Fold change /veh CCDC152 (11743942_at) / RFU ECM1 (11717891_a_at) / Fold change /veh ECM1 (11717891_a_at) / RFU IL23R (11748794_a_at) / Fold change /veh IL23R (11748794_a_at) / RFU TNFAIP8L3 (11732012_x_at) / Fold change /veh TNFAIP8L3 (11732012_x_at) / RFU MBOAT4 (11741988_at) / Fold change /veh MBOAT4 (11741988_at) / RFU 11764193_at / Fold change /veh 11764193_at / RFU TMEM53 (11763286_at) / Fold change /veh TMEM53 (11763286_at) / RFU MAGEB2 (11727129_at) / Fold change /veh MAGEB2 (11727129_at) / RFU TMEM200A (11744735_a_at) / Fold change /veh TMEM200A (11744735_a_at) / RFU CCDC152 (11751479_a_at) / Fold change /veh CCDC152 (11751479_a_at) / RFU FAM211A (11726209_a_at) / Fold change /veh FAM211A (11726209_a_at) / RFU RGS16 (11746705_a_at) / Fold change /veh RGS16 (11746705_a_at) / RFU VCAN (11755009_s_at) / Fold change /veh VCAN (11755009_s_at) / RFU RHOB (11743442_s_at) / Fold change /veh RHOB (11743442_s_at) / RFU RGS16 (11720943_a_at) / Fold change /veh RGS16 (11720943_a_at) / RFU RGS16 (11720944_at) / Fold change /veh RGS16 (11720944_at) / RFU, VPS4B / Fold change vs veh, VPS4B / RFU, CREB1 / Fold change vs veh, CREB1 / RFU, DNAJC13 / Fold change vs veh, DNAJC13 / RFU, GNAQ / Fold change vs veh, GNAQ / RFU, CDK5R1 / Fold change vs veh, CDK5R1 / RFU, ZRANB3 / Fold change vs veh, ZRANB3 / RFU, CUL4A / Fold change vs veh, CUL4A / RFU, CCNY / Fold change vs veh, CCNY / RFU, UFL1 / Fold change vs veh, UFL1 / RFU, COG3 / Fold change vs veh, COG3 / RFU, DIAPH2 / Fold change vs veh, DIAPH2 / RFU, SKA2 / Fold change vs veh, SKA2 / RFU, AFF3 / Fold change vs veh, AFF3 / RFU, LMF1 / Fold change vs veh, LMF1 / RFU, IPO11 / Fold change vs veh, IPO11 / RFU, DFFB / Fold change vs veh, DFFB / RFU, FOXP1 / Fold change vs veh, FOXP1 / RFU, CARD8 / Fold change vs veh, CARD8 / RFU, STRN3 / Fold change vs veh, STRN3 / RFU, ADK / Fold change vs veh, ADK / RFU, RASSF2 / Fold change vs veh, RASSF2 / RFU, WIPF1 / Fold change vs veh, WIPF1 / RFU, LARP1B / Fold change vs veh, LARP1B / RFU, RASA1 / Fold change vs veh, RASA1 / RFU, RB1 / Fold change vs veh, RB1 / RFU, PPFIA1 / Fold change vs veh, PPFIA1 / RFU, MAT2A / Fold change vs veh, MAT2A / RFU, CCT5 / Fold change vs veh, CCT5 / RFU, WDR92 / Fold change vs veh, WDR92 / RFU, CUX1 / Fold change vs veh, CUX1 / RFU, TTC7A / Fold change vs veh, TTC7A / RFU, TMEM135 / Fold change vs veh, TMEM135 / RFU, DEPTOR / Fold change vs veh, DEPTOR / RFU, CPM / Fold change vs veh, CPM / RFU, DNAJB6 / Fold change vs veh, DNAJB6 / RFU, CACNA2D3 / Fold change vs veh, CACNA2D3 / RFU, DTX4 / Fold change vs veh, DTX4 / RFU, TFCP2 / Fold change vs veh, TFCP2 / RFU, GMCL1 /// GMCL1P1 / Fold change vs veh, GMCL1 /// GMCL1P1 / RFU, AEBP2 / Fold change vs veh, AEBP2 / RFU, SNHG1 /// SNORD22 /// SNORD25 /// SNORD26 /// SNORD27 /// SNORD28 /// SNORD29 /// SNORD31 / Fold change vs veh, SNHG1 /// SNORD22 /// SNORD25 /// SNORD26 /// SNORD27 /// SNORD28 /// SNORD29 /// SNORD31 / Fold change (Aza/veh), C12orf56 (ProbeSet 11735607_a_at) / Fold change (ACY-1035/veh), C12orf56 (ProbeSet 11735607_a_at) / Fold change (Aza/veh), FGFR1OP (ProbeSet 11751329_s_at) / Fold change (ACY-1035/veh), FGFR1OP (ProbeSet 11751329_s_at) / Fold change (Aza/veh), VPS36 (ProbeSet 11739960_a_at) / Fold change (ACY-1035/veh), VPS36 (ProbeSet 11739960_a_at) / RFU SYPL1 (11715823_x_at) / Fold change /veh SYPL1 (11715823_x_at) / RFU IGFBP7 (11715501_s_at) / Fold change /veh IGFBP7 (11715501_s_at) / RFU REEP3 (11722064_at) / Fold change /veh REEP3 (11722064_at) / RFU IGLL1 (11728026_x_at) / Fold change /veh IGLL1 (11728026_x_at): dose or concentration left out as unconfirmed
Conditions: ProbeSet 11753616_s_at; LIST B

## Nc1ncn([C@@H]2O[C@H](CO)[C@@H](O)[C@H]2O)c(=O)n1 [azacitidine]
  RFU, ARL8B: 221.87 RFU

— PMC5218480 (PLoS ONE, 2017)
